{"source": "ChEMBL document CHEMBL5143714", "about": "“Discovery of BMS-986339, a Pharmacologically Differentiated Farnesoid X Receptor Agonist for the Treatment of Nonalcoholic Steatohepatitis” (J Med Chem, 2022)", "key": {"[1]": {"biological_target": "T1, UDP-glucuronosyltransferase 1A1 (Homo sapiens, UniProt P22309)", "T1 sequence (P22309 whole entry)": "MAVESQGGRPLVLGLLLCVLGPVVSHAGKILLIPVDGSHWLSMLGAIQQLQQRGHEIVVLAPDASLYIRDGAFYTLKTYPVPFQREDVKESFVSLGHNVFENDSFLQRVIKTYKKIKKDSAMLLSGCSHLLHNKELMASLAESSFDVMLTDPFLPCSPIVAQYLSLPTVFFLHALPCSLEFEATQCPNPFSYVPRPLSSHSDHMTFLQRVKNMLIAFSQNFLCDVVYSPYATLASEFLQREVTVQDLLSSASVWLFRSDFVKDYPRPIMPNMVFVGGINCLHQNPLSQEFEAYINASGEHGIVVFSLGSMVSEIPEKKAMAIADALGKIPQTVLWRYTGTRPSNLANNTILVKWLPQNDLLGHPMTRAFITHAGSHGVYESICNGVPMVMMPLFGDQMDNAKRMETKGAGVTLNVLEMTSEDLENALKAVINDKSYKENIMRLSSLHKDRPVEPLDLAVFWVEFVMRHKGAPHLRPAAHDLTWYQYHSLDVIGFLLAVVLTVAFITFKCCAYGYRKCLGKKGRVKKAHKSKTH", "experiment": "Inhibition of human UGT1A1"}, "[2]": {"experiment": "AUC (total) in Sprague-Dawley rat at 1 mg/kg, iv", "format": "ADME, organism-based", "design": "dose 1 mg/kg, route iv", "conditions": "in vivo"}, "[3]": {"experiment": "AUC (total) in C57BL6 mouse at 5 mg/kg, po", "format": "ADME, organism-based", "design": "dose 5 mg/kg, route po", "conditions": "in vivo"}, "[4]": {"biological_target": "T2, Bile acid receptor (Homo sapiens, UniProt Q96RI1)", "T2 sequence (Q96RI1 whole entry)": "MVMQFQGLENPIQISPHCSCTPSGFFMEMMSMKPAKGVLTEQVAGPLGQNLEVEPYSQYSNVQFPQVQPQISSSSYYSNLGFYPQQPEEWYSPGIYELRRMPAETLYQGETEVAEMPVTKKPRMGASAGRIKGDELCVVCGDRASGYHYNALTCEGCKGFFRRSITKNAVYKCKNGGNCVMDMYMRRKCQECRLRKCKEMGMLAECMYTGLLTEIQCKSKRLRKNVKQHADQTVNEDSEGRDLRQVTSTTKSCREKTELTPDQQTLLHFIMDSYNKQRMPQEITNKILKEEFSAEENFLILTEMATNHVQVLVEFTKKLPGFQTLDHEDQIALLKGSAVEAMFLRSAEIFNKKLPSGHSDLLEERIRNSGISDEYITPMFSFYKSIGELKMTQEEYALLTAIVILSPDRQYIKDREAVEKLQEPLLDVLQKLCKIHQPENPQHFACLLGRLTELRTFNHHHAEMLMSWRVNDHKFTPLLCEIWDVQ", "experiment": "Agonist activity at LBD fused human FXR in HEK293 cells incubated for 30 min by envision plate reader method", "format": "cell-based"}, "[5]": {"biological_target": "T3, Bile acid receptor (Mus musculus, UniProt Q60641)", "T3 sequence (Q60641 whole entry)": "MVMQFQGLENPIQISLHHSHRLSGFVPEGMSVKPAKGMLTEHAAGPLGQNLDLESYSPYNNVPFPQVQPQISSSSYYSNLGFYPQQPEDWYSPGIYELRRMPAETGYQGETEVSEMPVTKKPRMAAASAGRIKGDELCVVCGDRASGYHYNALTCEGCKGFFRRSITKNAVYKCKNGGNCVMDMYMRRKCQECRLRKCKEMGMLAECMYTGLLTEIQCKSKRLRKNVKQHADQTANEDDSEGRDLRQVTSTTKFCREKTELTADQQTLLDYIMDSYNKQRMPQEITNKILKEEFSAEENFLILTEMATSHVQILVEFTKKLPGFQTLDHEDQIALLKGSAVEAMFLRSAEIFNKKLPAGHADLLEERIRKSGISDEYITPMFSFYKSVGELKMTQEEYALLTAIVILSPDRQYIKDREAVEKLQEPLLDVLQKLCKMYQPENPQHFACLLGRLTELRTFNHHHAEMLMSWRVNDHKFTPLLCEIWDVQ", "experiment": "Agonist activity at mouse LBD fused FXR in HEK293 cells incubated for 30 min by envision plate reader method", "format": "cell-based"}}, "data": [{"smiles": "CC(C)(O)c1ccc(-c2cccc(N(CC34CCC(c5noc(C(C)(C)F)n5)(CC3)CC4)C(=O)[C@H]3C[C@](O)(C(F)(F)F)C3)c2)cc1", "values": [{"measurement": "IC50", "setting": "[1]", "result": 1.5, "unit": "µM"}, {"measurement": "AUC", "setting": "[2]", "result": 6.6, "unit": "µM·h"}, {"measurement": "AUC", "setting": "[3]", "result": 56.6, "unit": "µM·h"}, {"measurement": "EC50", "setting": "[4]", "result": 0.042, "unit": "µM"}, {"measurement": "EC50", "setting": "[5]", "result": 0.014, "unit": "µM"}]}]}
